# From patent US20130005747A1, “METHOD FOR SELECTING A CANCER THERAPY” (Cyclacel Limited, priority 2010, published 2013)
# Tests used:
# Test in all cases: Fractional growth, 72 h seliciclib
# Assay type in all cases: cell-based, human
# HT 1080 = HT 1080 (Miscellaneous), 15 μM seliciclib
# From the text: (§1) A total of 270 human cancer cell lines from diverse cancer histopathologic types were investigated.
# B-CPAP = B-CPAP (Thyroid), 15 μM seliciclib
# From the text: as §1
# HPAC = HPAC (Pancreas), 15 μM seliciclib
# From the text: as §1
# NCI-H2228 = NCI-H2228 (Lung: NSCLC), 15 μM seliciclib
# From the text: as §1
# HSC-2 = HSC-2 (Head & Neck), 15 μM seliciclib
# From the text: as §1
# Calu-3 = Calu-3 (Lung: NSCLC), 15 μM seliciclib
# From the text: as §1
# SNU-398 = SNU-398 (Liver), 15 μM seliciclib
# From the text: as §1
# RERF-LC-Sq1 = RERF-LC-Sq1 (Lung: NSCLC), 15 μM seliciclib
# From the text: as §1
# VMRC-RCZ = VMRC-RCZ (Kidney), 15 μM seliciclib
# From the text: as §1
# DK-MG = DK-MG (Brain), 15 μM seliciclib
# From the text: as §1
# NUGC-3 = NUGC-3 (Stomach), 15 μM seliciclib
# From the text: as §1
# HCC1395 = HCC1395 (Breast), 15 μM seliciclib
# From the text: as §1
# 143B = 143B (Bone), 15 μM seliciclib
# From the text: as §1
# PL4 = PL4 (Pancreas), 15 μM seliciclib
# From the text: as §1
# EBC-1 = EBC-1 (Lung: NSCLC), 15 μM seliciclib
# From the text: as §1
# BHT-101 = BHT-101 (Thyroid), 15 μM seliciclib
# From the text: as §1
# JHU-028 = JHU-028 (Head & Neck), 15 μM seliciclib
# From the text: as §1
# PCI-15 = PCI-15 (Head & Neck), 15 μM seliciclib
# From the text: as §1
# JHU-022 = JHU-022 (Head & Neck), 15 μM seliciclib
# From the text: as §1
# PCI-4B = PCI-4B (Head & Neck), 15 μM seliciclib
# From the text: as §1
# RERF-GC-1B = RERF-GC-1B (Stomach), 15 μM seliciclib
# From the text: as §1
# JHU-019 = JHU-019 (Head & Neck), 15 μM seliciclib
# From the text: as §1
# T84 = T84 (Intestine), 15 μM seliciclib
# From the text: as §1
# T47D = T47D (Breast), 15 μM seliciclib
# From the text: as §1
# SBC-5 = SBC-5 (Lung), 15 μM seliciclib
# From the text: as §1
# HPAF-II = HPAF-II (Pancreas), 15 μM seliciclib
# From the text: as §1
# NCI-H2452 = NCI-H2452 (Lung), 15 μM seliciclib
# From the text: as §1
# G-292 Clone A141B1 = G-292 Clone A141B1 (Bone), 15 μM seliciclib
# From the text: as §1
# HOS = HOS (Bone), 15 μM seliciclib
# From the text: as §1
# A-427 = A-427 (Lung: NSCLC), 15 μM seliciclib
# From the text: as §1
# KATO III = KATO III (Stomach), 15 μM seliciclib
# From the text: as §1
# NCI-H1299 = NCI-H1299 (Lung: NSCLC), 15 μM seliciclib
# From the text: as §1
# ESS-1 = ESS-1 (Uterus), 15 μM seliciclib
# From the text: as §1
# SW 1573 = SW 1573 (Lung: NSCLC), 15 μM seliciclib
# From the text: as §1
# MKN1 = MKN1 (Stomach), 15 μM seliciclib
# From the text: as §1
# HuH-7 = HuH-7 (Liver), 15 μM seliciclib
# From the text: as §1
# SK-MEL-37 = SK-MEL-37 (Skin), 15 μM seliciclib
# From the text: as §1
smiles,measurement,setting,value
"CC[C@H](CO)Nc1nc(NCc2ccccc2)c2ncn(C(C)C)c2n1 [seliciclib, roscovitine]",Fractional Growth,HT 1080,0.2044
same,Fractional Growth,B-CPAP,0.5754
same,Fractional Growth,HPAC,0.7062
same,Fractional Growth,NCI-H2228,0.6493
same,Fractional Growth,HSC-2,0.5464
same,Fractional Growth,Calu-3,0.6463
same,Fractional Growth,SNU-398,0.0473
same,Fractional Growth,RERF-LC-Sq1,0.6428
same,Fractional Growth,VMRC-RCZ,0.5994
same,Fractional Growth,DK-MG,0.8572
same,Fractional Growth,NUGC-3,0.5557
same,Fractional Growth,HCC1395,0.6999
same,Fractional Growth,143B,0.6124
same,Fractional Growth,PL4,0.057
same,Fractional Growth,EBC-1,0.3971
same,Fractional Growth,BHT-101,0.4486
same,Fractional Growth,JHU-028,0.5325
same,Fractional Growth,PCI-15,0.2641
same,Fractional Growth,JHU-022,0.6294
same,Fractional Growth,PCI-4B,0.4686
same,Fractional Growth,RERF-GC-1B,0.6411
same,Fractional Growth,JHU-019,0.4229
same,Fractional Growth,T84,0.5371
same,Fractional Growth,T47D,0.6314
same,Fractional Growth,SBC-5,0.7399
same,Fractional Growth,HPAF-II,0.4628
same,Fractional Growth,NCI-H2452,0.4571
same,Fractional Growth,G-292 Clone A141B1,0.6393
same,Fractional Growth,HOS,0.617
same,Fractional Growth,A-427,0.4252
same,Fractional Growth,KATO III,0.4299
same,Fractional Growth,NCI-H1299,0.3352
same,Fractional Growth,ESS-1,0.4399
same,Fractional Growth,SW 1573,0.6076
same,Fractional Growth,MKN1,0.3594
same,Fractional Growth,HuH-7,0.3911
same,Fractional Growth,SK-MEL-37,0.5209
